# Data: patent publication US20160052955A1 (SLOAN-KETTERING INSTITUTE FOR CANCER RESEARCH, priority 2013, published 2016)
# pIC50: −log10 of the molar value.
# Target: SETDB1Full-length (Homo sapiens, UniProt Q15047)
# Experiment: Filter-paper methyltransferase assay, SETDB1
# Format: biochemical
smiles,measurement,value
"Nc1ncnc2c1ncn2[C@@H]1O[C@H](C[C@@H](N)CC[C@H](N)C(=O)O)[C@@H](O)[C@H]1O [Sinefungin, sinefungin, reference compound]",pIC50,5.10
